{"source": "ChEMBL document CHEMBL3885861", "about": "“Open TG-GATES”", "species": "Rattus norvegicus", "assay": "Open TG-GATES - Regimen: Single", "format": "toxicity, organism-based, Sprague-Dawley", "parameters": "regimen Single, gender Male, age 6 weeks", "settings": "in vivo, po, 300 mg/kg, route gavage, dose level Middle; for APTT / Bas / Eos / Fbg / Hb / Ht / Lym / MCH / MCHC / MCV / Mono / Neu / PT / Plat / RBC / Ret / WBC: tissue Blood; for KIDNEY_L / KIDNEY_R / KIDNEY_TOTAL: tissue Kidney; for LIVER: tissue Liver; for A/G / ALP / ALT / AST / BUN / CRE / Ca / Cl / DBIL / GLC / IP / K / LDH / Na / PL / RALB / TBIL / TC / TG / TP / gamma-GTP: tissue Plasma", "data": [{"smiles": "O=C(N[C@H](CO)[C@H](O)c1ccc([N+](=O)[O-])cc1)C(Cl)Cl", "note": "[CHLORAMPHENICOL]", "values": [{"measurement": "TERMINAL_BW", "setting": "9 h", "result": 221.3, "unit": "g"}, {"measurement": "APTT", "setting": "9 h", "result": 16.4, "unit": "s"}, {"measurement": "Bas", "setting": "9 h", "result": 0, "unit": "%"}, {"measurement": "Eos", "setting": "9 h", "result": 0.8, "unit": "%"}, {"measurement": "Fbg", "setting": "9 h", "result": 273.4, "unit": "mg/dL"}, {"measurement": "Hb", "setting": "9 h", "result": 13.2, "unit": "g/dL"}, {"measurement": "Ht", "setting": "9 h", "result": 42.2, "unit": "%"}, {"measurement": "Lym", "setting": "9 h", "result": 81.6, "unit": "%"}, {"measurement": "MCH", "setting": "9 h", "result": 20.5, "unit": "pg"}, {"measurement": "MCHC", "setting": "9 h", "result": 31.4, "unit": "%"}, {"measurement": "MCV", "setting": "9 h", "result": 65.4, "unit": "fL"}, {"measurement": "Mono", "setting": "9 h", "result": 1.8, "unit": "%"}, {"measurement": "Neu", "setting": "9 h", "result": 15, "unit": "%"}, {"measurement": "PT", "setting": "9 h", "result": 15.2, "unit": "s"}, {"measurement": "Plat", "setting": "9 h", "result": 109.8, "unit": "x10_4/uL"}, {"measurement": "RBC", "setting": "9 h", "result": 646.2, "unit": "x10_4/ul"}, {"measurement": "Ret", "setting": "9 h", "result": 7.4, "unit": "%"}, {"measurement": "WBC", "setting": "9 h", "result": 55.9, "unit": "x10_2/uL"}, {"measurement": "KIDNEY_L", "setting": "9 h", "result": 0.9, "unit": "g"}, {"measurement": "KIDNEY_R", "setting": "9 h", "result": 0.9, "unit": "g"}, {"measurement": "KIDNEY_TOTAL", "setting": "9 h", "result": 1.8, "unit": "g"}, {"measurement": "LIVER", "setting": "9 h", "result": 8.3, "unit": "g"}, {"measurement": "A/G", "setting": "9 h", "result": 0.9}, {"measurement": "ALP", "setting": "9 h", "result": 1711.2, "unit": "IU/L"}, {"measurement": "ALT", "setting": "9 h", "result": 34.6, "unit": "IU/L"}, {"measurement": "AST", "setting": "9 h", "result": 70.2, "unit": "IU/L"}, {"measurement": "BUN", "setting": "9 h", "result": 10.2, "unit": "mg/dL"}, {"measurement": "CRE", "setting": "9 h", "result": 0.2, "unit": "mg/dL"}, {"measurement": "Ca", "setting": "9 h", "result": 11.1, "unit": "mg/dL"}, {"measurement": "Cl", "setting": "9 h", "result": 105, "unit": "meq/L"}, {"measurement": "DBIL", "setting": "9 h", "result": 0.014, "unit": "mg/dL"}, {"measurement": "GLC", "setting": "9 h", "result": 180.4, "unit": "mg/dL"}, {"measurement": "IP", "setting": "9 h", "result": 10.2, "unit": "mg/dL"}, {"measurement": "K", "setting": "9 h", "result": 4.5, "unit": "meq/L"}, {"measurement": "LDH", "setting": "9 h", "result": 59.4, "unit": "IU/L"}, {"measurement": "Na", "setting": "9 h", "result": 139.8, "unit": "meq/L"}, {"measurement": "PL", "setting": "9 h", "result": 122, "unit": "mg/dL"}, {"measurement": "RALB", "setting": "9 h", "result": 2.5, "unit": "g/dL"}, {"measurement": "TBIL", "setting": "9 h", "result": 0.068, "unit": "mg/dL"}, {"measurement": "TC", "setting": "9 h", "result": 67.8, "unit": "mg/dL"}, {"measurement": "TG", "setting": "9 h", "result": 36, "unit": "mg/dL"}, {"measurement": "TP", "setting": "9 h", "result": 5.3, "unit": "g/dL"}, {"measurement": "gamma-GTP", "setting": "9 h", "result": 1.2, "unit": "IU/L"}, {"measurement": "TERMINAL_BW", "setting": "24 h", "result": 227.9, "unit": "g"}, {"measurement": "APTT", "setting": "24 h", "result": 18.8, "unit": "s"}, {"measurement": "Bas", "setting": "24 h", "result": 0, "unit": "%"}, {"measurement": "Eos", "setting": "24 h", "result": 0.8, "unit": "%"}, {"measurement": "Fbg", "setting": "24 h", "result": 258.8, "unit": "mg/dL"}, {"measurement": "Hb", "setting": "24 h", "result": 13.7, "unit": "g/dL"}, {"measurement": "Ht", "setting": "24 h", "result": 42.4, "unit": "%"}, {"measurement": "Lym", "setting": "24 h", "result": 84.4, "unit": "%"}, {"measurement": "MCH", "setting": "24 h", "result": 21.7, "unit": "pg"}, {"measurement": "MCHC", "setting": "24 h", "result": 32.1, "unit": "%"}, {"measurement": "MCV", "setting": "24 h", "result": 67.6, "unit": "fL"}, {"measurement": "Mono", "setting": "24 h", "result": 2.8, "unit": "%"}, {"measurement": "Neu", "setting": "24 h", "result": 11.6, "unit": "%"}, {"measurement": "PT", "setting": "24 h", "result": 14.8, "unit": "s"}, {"measurement": "Plat", "setting": "24 h", "result": 118.7, "unit": "x10_4/uL"}, {"measurement": "RBC", "setting": "24 h", "result": 628.2, "unit": "x10_4/ul"}, {"measurement": "Ret", "setting": "24 h", "result": 7.8, "unit": "%"}, {"measurement": "WBC", "setting": "24 h", "result": 66, "unit": "x10_2/uL"}, {"measurement": "KIDNEY_L", "setting": "24 h", "result": 1, "unit": "g"}, {"measurement": "KIDNEY_R", "setting": "24 h", "result": 1, "unit": "g"}, {"measurement": "KIDNEY_TOTAL", "setting": "24 h", "result": 2, "unit": "g"}, {"measurement": "LIVER", "setting": "24 h", "result": 9.4, "unit": "g"}, {"measurement": "A/G", "setting": "24 h", "result": 0.9}, {"measurement": "ALP", "setting": "24 h", "result": 1891.8, "unit": "IU/L"}, {"measurement": "ALT", "setting": "24 h", "result": 48.2, "unit": "IU/L"}, {"measurement": "AST", "setting": "24 h", "result": 76.6, "unit": "IU/L"}, {"measurement": "BUN", "setting": "24 h", "result": 14.8, "unit": "mg/dL"}, {"measurement": "CRE", "setting": "24 h", "result": 0.2, "unit": "mg/dL"}, {"measurement": "Ca", "setting": "24 h", "result": 11.5, "unit": "mg/dL"}, {"measurement": "Cl", "setting": "24 h", "result": 105.4, "unit": "meq/L"}, {"measurement": "DBIL", "setting": "24 h", "result": 0.02, "unit": "mg/dL"}, {"measurement": "GLC", "setting": "24 h", "result": 190.4, "unit": "mg/dL"}, {"measurement": "IP", "setting": "24 h", "result": 8.8, "unit": "mg/dL"}, {"measurement": "K", "setting": "24 h", "result": 4.5, "unit": "meq/L"}, {"measurement": "LDH", "setting": "24 h", "result": 65, "unit": "IU/L"}, {"measurement": "Na", "setting": "24 h", "result": 141.6, "unit": "meq/L"}, {"measurement": "PL", "setting": "24 h", "result": 157.6, "unit": "mg/dL"}, {"measurement": "RALB", "setting": "24 h", "result": 2.5, "unit": "g/dL"}, {"measurement": "TBIL", "setting": "24 h", "result": 0.062, "unit": "mg/dL"}, {"measurement": "TC", "setting": "24 h", "result": 86, "unit": "mg/dL"}, {"measurement": "TG", "setting": "24 h", "result": 81, "unit": "mg/dL"}, {"measurement": "TP", "setting": "24 h", "result": 5.5, "unit": "g/dL"}, {"measurement": "gamma-GTP", "setting": "24 h", "result": 1, "unit": "IU/L"}]}]}
